We go through one compound from publication PMC9953224, “Pharmacokinetic Evaluation of New Drugs Using a Multi-Labelling Approach and PET Imaging: Application to a Drug Candidate with Potential Application in Neuromuscular Disorders” (Biomedicines, 2023).

pIC50: −log10 of the molar value. Entries after “also recorded” stand apart in the source; their conditions may differ.

Data set [1] is described as follows: In vitro metabolism with rat liver microsomes. Particulars: NADPH, 30 min. The format is in vitro ADME. Here is the method: Labelled compounds ([^11C]AHK2.1, 2.8 MBq, 0.4 nmol; [^11C]AHK2.2, 4.7–5.1 MBq, 0.2–0.4 nmol; [^3H]AHK2, 0.25 MBq, 0.5 nmol; or non-radioactive AHK2, the latter for metabolite identification) and microsomal protein (rat Sprague Dawley microsomes, Thermo Fisher Scientific, Carlsbad, CA, USA; which are a sub-cellular fraction of hepatocytes containing enzymes responsible for the metabolism of over 90% of commercial drugs; 20 mg/mL) were pre-incubated for 5 min with gentle agitation (300 rpm) in 100 mM phosphate buffer (pH 7.4). The reaction was initiated by the addition of 10 μL freshly prepared 20 mM nicotinamide adenine dinucleotide phosphate (NADPH, Roche, Mannheim, Germany) in 100 mM phosphate buffer (pH 7.4). […] The resulting supernatants were analysed by HPLC, using an Agilent 1200 Series chromatograph equipped with a multiple wavelength UV detector (λ = 254 nm) and two radioactivity detectors, one of them equipped with a solid scintillation cell, especially designed to detect low energy β^- (Ramona, Raytest), and one of them equipped with a NaI crystal, for the detection of γ-rays (Gabi, Raytest). […] For the non-radioactive AHK2, the resulting supernatants were analysed by ultra-high-performance liquid chromatography coupled with electrospray ionization time-of-flight mass spectrometry (UHPLC-ESI-TOF-MS, Electrospray positive mode/W mode m/z range 100–1000). […]
A general note: Microsomes from liver hold many membrane-bound enzymes, among them those of drug oxidation.

For the next data set, the target named is T1, FKBP12 (Homo sapiens, UniProt P62942).
T1 construct: host or cells: HEK293
Put plainly: Competitive ligand binding assay (FKBP/FRB NanoBiT luminescence protein complementation) in HEK293 cells. The format is cell-based. How it is done: Briefly, HEK293 (ATCC) cells were transfected with FKBP/FRB NanoBiT Control Pair (Promega, Madison, WI, USA) and kinetic measurements were performed 24 h after transfection with Nano-Glo Live Cell Reagent (Promega), as described by the manufacturer. A total of 30 nM rapamycin (Sigma-Aldrich, Madrid, Spain) and AHK2 (1 μM–10 mM) was sequentially added and each effect was recorded for 10 min. Specific activity was normalized to vehicle, and IC50 was calculated using GraphPad Prism by fitting the data to a four-parameter logistic curve.

T1 sequence (P62942 whole entry): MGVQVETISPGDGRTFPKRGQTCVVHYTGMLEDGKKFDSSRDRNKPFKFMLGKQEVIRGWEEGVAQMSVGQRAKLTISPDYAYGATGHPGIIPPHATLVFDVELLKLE

The term pIC50 denotes the IC50 on a negative log10 scale, so that one unit is a factor of ten. For the compound `COc1ccc(SCc2cn(CCN(C)C)nn2)cc1` [AHK2, 1-[2-(N,N-dimethylamino)ethyl]-4-[(4-methoxyphenyl)thiomethyl]-1H-1,2,3-triazole], in data set [1], the main metabolic pathways entry is “oxidation of the thioether group into sulfoxide, demethylation of the CH3O-Ar residue and demethylation of –N(CH3)2”. Moreover, the negative logarithm of the IC50 (pIC50) at FKBP12 (30 nM rapamycin, AHK2 1 μM–10 mM, read-out: IC50, displacement of rapamycin from FKBP12 (inhibition of FKBP12-Rapamycin-FRB interaction)) is 2.53. At FKBP12 (rapamycin 30 nM), the “induction of FKBP12/FRB dimerization (luminescence)” value is recorded as “did not induce FKBP12/FRB dimerization; also recorded: not able to induce FKBP12/FRB dimerization”.
